Measurements: patent publication US8722909B2, “Antiprotozoal compound derived from coelenterata” (Waseda University, priority 2010, dated 2014)
≈ marks a conversion by molar mass, not a printed value.

Legend:
Format in all cases: cell-based
[1] = system: EGFP transgenic Leishmania protozoa (LaEGFP); assay: microbe, parasite or virus in culture
Procedure: EGFP transgenic Leishmania protozoa (LaEGFP, Okuno T et al., Exp. Anim, 52: 109 (2003)) 1×10^5 cells were inoculated into a 96-well plate, and a sample diluted with a culture medium was then added and incubated for 72 hours. Subsequently, the fluorescence intensity within each well was measured using a fluorescence plate reader, and the antileishmanial activity of the test sample was calculated.

[2] = system: Trypanosoma congolense (bloodstream form); assay: Antitrypanosomal activity test (TetraColor ONE, 48 hours)
Procedure: Trypanosoma congolense (bloodstream form) 2×10^5 cells were inoculated into a 96-well plate, and a sample diluted with a culture medium was then added and cultured for 48 hours. Subsequently, 10 μL of TetraColor ONE (Seikagaku Biobusiness Corporation) was added to each well to measure the viable cell count, and after 4 hours, the absorbance at 450 nm was measured.

[3] = system: Plasmodium falciparum K-1 strain; assay: Antiplasmodial activity test (SYBR GREEN, 48 hours); conditions: read-out: IC50 value against the Plasmodium falciparum K-1 strain
Procedure: Synchronized 0.5% ring stage Plasmodium falciparum K-1 strain 90 μL was added to each well of a 96-well plate, and a sample diluted with a culture medium was then added and incubated for 48 hours. Subsequently, 100 μL of a mixed solution prepared by adding 0.2 μL of SYBR GREEN to 1 mL of lysis buffer (20 mM Tris (pH 7.5), 5 mM EDTA, 0.008% (wt/vol) saponin, 0.08% (vol/vol) Triton X-100) was added to each well, and stirred with a vortex mixer. Following standing for 1 hour in a dark place, the fluorescence was measured with a fluorescence plate reader, using an excitation wavelength of 485 nm and a detection wavelength of 530 nm.

[4] = system: mouse lymphoma-derived P388 cells; assay: Cytotoxicity test (MTT), P388; conditions: isolated compound, 72 hours, read-out: IC50 value against P388 cells
Procedure: (§1) A suspension of human cervical cancer-derived HeLa cells and mouse lymphoma-derived P388 cells (1×10^4 cells/mL) 200 μL was dispended into each well of rows A to H, columns 1 to 11 of a 96-well microplate, and the suspension was then incubated for 24 hours at 37° C. Subsequently, 2 μL of a methanol solution of the sample (1 mg/mL) was added to each well of row A, columns 1 to 10 of the 96-well microplate, and 2 μL of adriamycin (1 mg/mL) was added to the well of row A, column 11 as a positive control. Only the culture medium 200 μL was added to each well of rows A to D, column 12, and 200 μL of the aforementioned suspension of 1×10^4 cells/mL was added to each well of rows E to H, column 12. Using a multi-channel pipette, 50 μL of the culture medium was aspirated from the well of each column of row A and added to the well of the corresponding column of row B, and then 50 μL of the culture medium was aspirated from the well of each column of row B and added to the well of the corresponding column of row C. […] Following culturing for 72 hours, 50 μL of 1 mg/mL PBS solution of MTT (3-[4,5-dimethylthiazol-2-yl]-2,5-diphenyl tetrazolium bromide) was added to each well. […] For each well, the absorbance of the colorimetric substrate dissolved in the DMSO was measured using a multi-well plate reader, and the concentration at which half the cells were inhibited (IC50) was determined. […]

[5] = system: human cervical cancer-derived HeLa cells; assay: Cytotoxicity test (MTT), HeLa; conditions: isolated compound, 72 hours, read-out: IC50 value against HeLa cells
Procedure: as §1

[6] = system: human promyelocytic leukemia-derived HL-60 cells; assay: Cytotoxicity test (MTT), HL-60; conditions: isolated compound, 72 hours, read-out: IC50 value against HL-60 cells
Procedure: A suspension of human cervical cancer-derived HeLa cells, human promyelocytic leukemia-derived HL-60 cells, and mouse lymphoma-derived P388 cells (1×10^4 cells/mL) 200 μL was dispended into each well of rows A to H, columns 1 to 11 of a 96-well microplate, and the suspension was then incubated for 24 hours at 37° C. Subsequently, 2 μL of a methanol solution of the sample (1 mg/mL) was added to each well of row A, columns 1 to 10 of the 96-well microplate, and 2 μL of adriamycin (1 mg/mL) was added to the well of row A, column 11 as a positive control. Only the culture medium 200 μL was added to each well of rows A to D, column 12, and 200 μL of the aforementioned suspension of 1×10^4 cells/mL was added to each well of rows E to H, column 12. Using a multi-channel pipette, 50 μL of the culture medium was aspirated from the well of each column of row A and added to the well of the corresponding column of row B, and then 50 μL of the culture medium was aspirated from the well of each column of row B and added to the well of the corresponding column of row C. […] For each well, the absorbance of the colorimetric substrate dissolved in the DMSO was measured using a multi-well plate reader, and the concentration at which half the cells were inhibited (IC50) was determined.

cristaxenicin A
antiprotozoal activity of HPLC peak fractions (in words) ([1]; reversed phase HPLC peak fractions): exhibited antiprotozoal activity

CC(=O)O/C=C1\CCC/C(C=O)=C\C[C@@H]2C(C(=O)CC=C(C)C)=CO[C@H](OC(C)=O)[C@@H]12 [cristaxenicin A]
IC50 ([2]; Trypanosoma congolense, read-out: IC50 value against the T. congolense): 0.107 µg/mL (≈ 0.249 µM)
IC50 [3]: 4.6 µg/mL (≈ 10.7 µM)
IC50 [4]: 0.89 µg/mL (≈ 2.07 µM)
IC50 [5]: 2 µg/mL (≈ 4.65 µM)
IC50 [6]: 0.727 µg/mL (≈ 1.69 µM)
IC50 ([1]; Leishmania, 72 h, read-out: IC50 value against the LaEGFP (antileishmanial activity)): 0.036 µg/mL (≈ 0.0836 µM)

C[C@@H]1[C@H](O)[C@@H](C)/C=C/C=C/C=C/C=C/C=C/C=C/C=C/[C@H](O[C@@H]2O[C@H](C)[C@@H](O)[C@H](N)[C@@H]2O)C[C@@H]2O[C@](O)(C[C@@H](O)C[C@@H](O)[C@H](O)CC[C@@H](O)C[C@@H](O)CC(=O)O[C@H]1C)C[C@H](O)[C@H]2C(=O)O [amphotericin B, reference compound]
IC50 value against the T. congolense [2]: 0.811 µg/mL (≈ 0.878 µM)
IC50 value against the LaEGFP (antileishmanial activity) ([1]; LaEGFP, 72 hours): approximately 20 ng/mL
